One assay addresses CDK2/Cyclin E1(14-475) (Homo sapiens, UniProt P24941). The assay can be described thus: Caliper LabChip EZ Reader mobility shift assay, inhibition of CDK2/Cyclin E1 activity. In kind it is biochemical. The following applies: class symbols A-D. The gist of the method:
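Mobility-shift readout of fluorescent peptide (1.5 μM final) phosphorylation by 2.5 nM CDK2/Cyclin E1(14-475) at 100 μM ATP, pH 7.5. Compounds pre-incubated 30 min with enzyme before substrate addition; 100-min reaction halted by EDTA, normalized % activity fitted to four-parameter curve for IC50.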

The next assay relates to Kuramochi cells. The experiment in a line: BrdU cell proliferation assay (colorimetric ELISA), Kuramochi cells. In kind it is cell-based. To be noted: class symbols A-D. The gist of the method:
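Proliferation was read as BrdU incorporation: a 1 h pulse, then fixation and peroxidase-antibody ELISA at 450 nm, with values normalized to DMSO after empty-well subtraction. Treatment lasted 4 days on Kuramochi cells seeded at 2,000/well, using four 3-fold compound dilutions from 10 mM stocks. RB^KO Kuramochi cells were run in parallel for specificity.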

As a reminder, the IC50 is the concentration needed to halve the response being measured. For the compound `CNC(=O)[C@H](CCCc1ccccc1)NC(=O)C1CN(C(=O)c2cncs2)CC2CN(C(=O)c3ccc(OC(C)C)c(OC)c3)CC21` (some centres unmarked) [I-206], the IC50 at CDK2/Cyclin E1(14-475) and with Kuramochi cells was above 10 µM in each case.
As for `CNC(=O)[C@H](CCCc1ccccc1)NC(=O)C1CN(C(=O)C2CCOCC2)CC2CN(C(=O)c3ccc(OC(C)C)c(OC)c3)CC21` (some centres unmarked) [I-207], the IC50 on CDK2/Cyclin E1(14-475) and with Kuramochi cells was above 10 µM throughout.
On to `CNC(=O)[C@H](CCCc1ccccc1)NC(=O)C1CN(C(=O)c2ccc(C#N)cn2)CC2CN(C(=O)c3ccc(OC(C)C)c(OC)c3)CC21` (some centres unmarked) [I-208], for which the IC50 at CDK2/Cyclin E1(14-475) and in the assay with Kuramochi cells was above 10 µM each time.
As for `CNC(=O)[C@H](CCCc1ccccc1)NC(=O)C1CN(C(=O)c2cccc(CO)n2)CC2CN(C(=O)c3ccc(OC(C)C)c(OC)c3)CC21` (some centres unmarked) [I-209], the IC50 on CDK2/Cyclin E1(14-475) and with Kuramochi cells was above 10 µM throughout.
Regarding `CNC(=O)[C@H](CCCc1ccccc1)NC(=O)C1CN(C(=O)c2cccc(-c3cccnc3)c2)CC2CN(C(=O)c3ccc(OC(C)C)c(OC)c3)CC21` (some centres unmarked) [I-210], the IC50 on CDK2/Cyclin E1(14-475) and with Kuramochi cells was above 10 µM in each case.
In the case of `CNC(=O)[C@H](CCCc1ccccc1)NC(=O)C1CN(C(=O)c2cncc(C)n2)CC2CN(C(=O)c3ccc(OC(C)C)c(OC)c3)CC21` (some centres unmarked) [I-211], the IC50 at CDK2/Cyclin E1(14-475) and in the assay on Kuramochi cells was above 10 µM in each case.
In the case of `CNC(=O)[C@H](CCCc1ccccc1)NC(=O)C1CN(C(=O)Cc2c[nH]c3cnccc23)CC2CN(C(=O)c3ccc(OC(C)C)c(OC)c3)CC21` (some centres unmarked) [I-212], the 50% inhibitory concentration (IC50) at CDK2/Cyclin E1(14-475) and in the assay on Kuramochi cells was above 10 µM each time.
As to `CNC(=O)[C@H](CCCc1ccccc1)NC(=O)C1CN(C(=O)c2cccc3cc[nH]c23)CC2CN(C(=O)c3ccc(OC(C)C)c(OC)c3)CC21` (some centres unmarked) [I-213], the IC50 at CDK2/Cyclin E1(14-475) and in the assay with Kuramochi cells was above 10 µM throughout.
As to `CCc1ccc(C(=O)N2CC3CN(C(=O)c4ccc(OC(C)C)c(OC)c4)CC3C(C(=O)N[C@@H](CCCc3ccccc3)C(=O)NC)C2)nc1` (some centres unmarked) [I-214], the IC50 on CDK2/Cyclin E1(14-475) and in the assay on Kuramochi cells was above 10 µM throughout.
With `CNC(=O)[C@H](CCCc1ccccc1)NC(=O)C1CN(C(=O)c2ccn(C)c2)CC2CN(C(=O)c3ccc(OC(C)C)c(OC)c3)CC21` (some centres unmarked) [I-215], the IC50 on CDK2/Cyclin E1(14-475) and with Kuramochi cells was above 10 µM each time.
In the case of `CNC(=O)[C@H](CCCc1ccccc1)NC(=O)C1CN(C(=O)c2ccc(OC)nn2)CC2CN(C(=O)c3ccc(OC(C)C)c(OC)c3)CC21` (some centres unmarked) [I-216], the concentration for half-maximal inhibition (IC50) on CDK2/Cyclin E1(14-475) and in the assay on Kuramochi cells was above 10 µM throughout.
For `CNC(=O)[C@H](CCCc1ccccc1)NC(=O)C1CN(C(=O)Cc2c[nH]c3cccc(C)c23)CC2CN(C(=O)c3ccc(OC(C)C)c(OC)c3)CC21` (some centres unmarked) [I-217], the IC50 on CDK2/Cyclin E1(14-475) and in the assay with Kuramochi cells was above 10 µM in each case.
For the compound `CNC(=O)[C@H](CCCc1ccccc1)NC(=O)C1CN(C(=O)Cc2cn(CCOC)c3ccccc23)CC2CN(C(=O)c3ccc(OC(C)C)c(OC)c3)CC21` (some centres unmarked) [I-218], the IC50 at CDK2/Cyclin E1(14-475) and in the assay with Kuramochi cells was above 10 µM each time.
In the case of `CNC(=O)[C@H](CCCc1ccccc1)NC(=O)C1CN(C(=O)Cc2c[nH]c3ccc(C)cc23)CC2CN(C(=O)c3ccc(OC(C)C)c(OC)c3)CC21` (some centres unmarked) [I-219], the IC50 at CDK2/Cyclin E1(14-475) was 0.5 to 5 µM; in the assay on Kuramochi cells, above 10 µM.
Consider `CNC(=O)[C@H](CCCc1ccccc1)NC(=O)C1CN(C(=O)Cc2c[nH]c3ccc(Cl)cc23)CC2CN(C(=O)c3ccc(OC(C)C)c(OC)c3)CC21` (some centres unmarked) [I-220], for which the half-maximal inhibitory concentration (IC50) on CDK2/Cyclin E1(14-475) and with Kuramochi cells was above 10 µM each time.
As for `CNC(=O)[C@H](CCCc1ccccc1)NC(=O)C1CN(C(=O)Cc2c[nH]c3ccccc23)CC2CN(C(=O)c3ccc(OC(C)C)c(OC)c3)CC21` (some centres unmarked) [I-223], the IC50 at CDK2/Cyclin E1(14-475) and with Kuramochi cells was above 10 µM in each case.
Turning to `CNC(=O)[C@H](CCCc1ccccc1)NC(=O)C1CN(C(=O)Cc2cn(C)c3cc(Cl)ccc23)CC2CN(C(=O)c3ccc(OC(C)C)c(OC)c3)CC21` (some centres unmarked) [I-225], the concentration for half-maximal inhibition (IC50) at CDK2/Cyclin E1(14-475) is 0.5 to 5 µM; in the assay with Kuramochi cells, above 10 µM.
For `CNC(=O)[C@H](CCCc1ccccc1)NC(=O)C1CN(C(=O)C(C)c2c[nH]c3cc(Cl)ccc23)CC2CN(C(=O)c3ccc(OC(C)C)c(OC)c3)CC21` (some centres unmarked) [I-226], the IC50 was in the range of 0.5 to 5 µM at CDK2/Cyclin E1(14-475) and 5 to 10 µM in the assay with Kuramochi cells.
Turning to `CNC(=O)[C@H](CCCc1ccccc1)NC(=O)C1CN(C(=O)Cc2c[nH]c3cc(Cl)c(Cl)cc23)CC2CN(C(=O)c3ccc(OC(C)C)c(OC)c3)CC21` (some centres unmarked) [I-227], the IC50 is at most 0.5 µM on CDK2/Cyclin E1(14-475) and above 10 µM in the assay with Kuramochi cells.
`CNC(=O)[C@H](CCCc1ccccc1)NC(=O)C1CN(C(=O)c2c[nH]c3cc(C)ccc23)CC2CN(C(=O)c3ccc(OC(C)C)c(OC)c3)CC21` (some centres unmarked) [I-228]: the IC50 at CDK2/Cyclin E1(14-475) and in the assay on Kuramochi cells was above 10 µM throughout.
With `CNC(=O)[C@H](CCCc1ccccc1)NC(=O)C1CN(C(=O)Cc2c[nH]c3c(OC)cccc23)CC2CN(C(=O)c3ccc(OC(C)C)c(OC)c3)CC21` (some centres unmarked) [I-229], the IC50 at CDK2/Cyclin E1(14-475) and in the assay with Kuramochi cells was above 10 µM each time.
Regarding `CNC(=O)[C@H](CCCc1ccccc1)NC(=O)C1CN(C(=O)Cc2cnccn2)CC2CN(C(=O)c3ccc(OC(C)C)c(OC)c3)CC21` (some centres unmarked) [I-230], the IC50 at CDK2/Cyclin E1(14-475) and in the assay on Kuramochi cells was above 10 µM throughout.
As for `CNC(=O)[C@H](CCCc1ccccc1)NC(=O)C1CN(C(=O)Cc2c[nH]c3cc(C)ccc23)CC2CN(C(=O)c3ccc(OC(C)C)c(OC)c3)CC21` (some centres unmarked) [I-231], the IC50 at CDK2/Cyclin E1(14-475) was 5 to 10 µM; with Kuramochi cells, above 10 µM.
With `CNC(=O)[C@H](CCCc1ccccc1)NC(=O)C1CN(C(=O)Cc2c[nH]c3cc(OCC4CC4)ccc23)CC2CN(C(=O)c3ccc(OC(C)C)c(OC)c3)CC21` (some centres unmarked) [I-234], the IC50 at CDK2/Cyclin E1(14-475) and in the assay on Kuramochi cells was above 10 µM in each case.
As for `CNC(=O)[C@H](CCCc1ccccc1)NC(=O)C1CN(C(=O)Cc2c[nH]c3ccc(Br)cc23)CC2CN(C(=O)c3ccc(OC(C)C)c(OC)c3)CC21` (some centres unmarked) [I-237], the IC50 at CDK2/Cyclin E1(14-475) is at most 0.5 µM; in the assay on Kuramochi cells it was above 10 µM.
As for `COc1cc(C(=O)N2CC3CN(C(=O)Cc4c[nH]c5cc(Cl)ccc45)CC(C(=O)Nc4cncc(Cc5ccccc5)c4)C3C2)ccc1OC(C)C` (centres unmarked) [I-238, N-(5-benzylpyridin-3-yl)-5-(2-(6-chloro-1H-indol-3-yl)acetyl)-2-(4-isopropoxy-3-methoxybenzoyl)octahydro-1H-pyrrolo[3,4-c]pyridine-7-carboxamide], the IC50 at CDK2/Cyclin E1(14-475) and in the assay with Kuramochi cells was 0.5 to 5 µM throughout.
`COc1cc(C(=O)N2CC3CN(C(=O)Cc4c[nH]c5cc(Cl)ccc45)CC(C(=O)Nc4ccnc(Cc5ccccc5)c4)C3C2)ccc1OC(C)C` (centres unmarked) [I-239]: the IC50 at CDK2/Cyclin E1(14-475) was 0.5 to 5 µM; with Kuramochi cells, above 10 µM.
For the compound `COc1cc(C(=O)N2CC3CN(C(=O)Cc4c[nH]c5cc(Cl)ccc45)CC(C(=O)Nc4cncc(Oc5ccccc5)c4)C3C2)ccc1OC(C)C` (centres unmarked) [I-240], the values for the IC50 on CDK2/Cyclin E1(14-475) and with Kuramochi cells were 0.5 to 5 µM and above 10 µM, respectively.
Turning to `COc1cc(C(=O)N2CC3CN(C(=O)Cc4c[nH]c5cc(Cl)ccc45)CC(C(=O)Nc4ccc(Cc5ccccc5)nc4)C3C2)ccc1OC(C)C` (centres unmarked) [I-241], the IC50 on CDK2/Cyclin E1(14-475) and in the assay on Kuramochi cells was above 10 µM in each case.
With `CNC(=O)[C@@H](NC(=O)C1CN(C(=O)Cc2c[nH]c3cc(Cl)ccc23)CC2CN(C(=O)c3ccc(OC4CC4)cc3)CC21)[C@@H](C)OCC1CCCCC1` (stereo partly drawn) [I-242, 5-(2-(6-chloro-1H-indol-3-yl)acetyl)-N-((2S,3R)-3-(cyclohexylmethoxy)-1-(methylamino)-1-oxobutan-2-yl)-2-(4-cyclopropoxybenzoyl)octahydro-1H-pyrrolo[3,4-c]pyridine-7-carboxamide], the figures for the IC50 at CDK2/Cyclin E1(14-475) and in the assay on Kuramochi cells were 0.5 to 5 µM and above 10 µM, respectively.
In the same order, the values of `C[C@H](OCc1ccc(F)cc1)[C@H](NC(=O)C1CN(C(=O)Cc2c[nH]c3cc(Cl)ccc23)CC2CN(C(=O)c3ccc(OC4CC4)cc3)CC21)C(N)=O` (some centres unmarked) [I-243] are 0.5 to 5 µM and above 10 µM.
In the case of `C[C@@H](OCc1ccc(F)cc1)[C@H](NC(=O)C1CN(C(=O)Cc2c[nH]c3cc(Cl)ccc23)CC2CN(C(=O)c3ccc(OC4CC4)cc3)CC21)C(N)=O` (some centres unmarked) [I-244], the IC50 on CDK2/Cyclin E1(14-475) and with Kuramochi cells was above 10 µM throughout.
Take `C[C@H](OCc1ccc(F)cc1)[C@@H](NC(=O)C1CN(C(=O)Cc2c[nH]c3cc(Cl)ccc23)CC2CN(C(=O)c3ccc(OC4CC4)cc3)CC21)C(N)=O` (some centres unmarked) [I-245]: the IC50 at CDK2/Cyclin E1(14-475) and in the assay with Kuramochi cells was above 10 µM in each case.
Take `C[C@@H](OCc1ccc(F)cc1)[C@@H](NC(=O)C1CN(C(=O)Cc2c[nH]c3cc(Cl)ccc23)CC2CN(C(=O)c3ccc(OC4CC4)cc3)CC21)C(N)=O` (some centres unmarked) [I-246]: the IC50 at CDK2/Cyclin E1(14-475) and in the assay with Kuramochi cells was above 10 µM in each case.
As for `CNC(=O)[C@H](CCCc1ccccc1)NC(=O)C1CN(C(=O)Cc2c[nH]c3cc(OC)ccc23)CC2CN(C(=O)c3ccc(Cl)c(Cl)c3)CC21` (stereo partly drawn) [I-247, 2-(3,4-dichlorobenzoyl)-5-(2-(6-methoxy-1H-indol-3-yl)acetyl)-N—((S)-1-(methylamino)-1-oxo-5-phenylpentan-2-yl)octahydro-1H-pyrrolo[3,4-c]pyridine-7-carboxamide], the IC50 on CDK2/Cyclin E1(14-475) and in the assay with Kuramochi cells was above 10 µM in each case.
Take `CNC(=O)[C@H](CCCc1ccccc1)NC(=O)C1CN(C(=O)Cc2c[nH]c3cc(OC)ccc23)CC2CN(C(=O)c3ccc(C(F)(F)F)c(Cl)c3)CC21` (some centres unmarked) [I-248]: the IC50 on CDK2/Cyclin E1(14-475) and in the assay with Kuramochi cells was above 10 µM each time.
Turning to `CNC(=O)[C@@H](NC(=O)C1CN(C(=O)Cc2c[nH]c3cc(Cl)ccc23)CC2CN(C(=O)c3cc(-c4ccccc4)n[nH]3)CC21)[C@H](C)OCC1CCCCC1` (stereo partly drawn) [I-249, 5-(2-(6-chloro-1H-indol-3-yl)acetyl)-N-((2S,3S)-3-(cyclohexylmethoxy)-1-(methylamino)-1-oxobutan-2-yl)-2-(3-phenyl-1H-pyrazole-5-carbonyl)octahydro-1H-pyrrolo[3,4-c]pyridine-7-carboxamide], the IC50 at CDK2/Cyclin E1(14-475) and with Kuramochi cells was above 10 µM throughout.

The values are drawn from patent US12053459B2, “CDK2 inhibitors and methods of using the same” (Cedilla Therapeutics, Inc., priority 2021, dated 2024).
